Reference: PubChem BioAssay AID248 (DTP/NCI, 2004)
Values joined by “and” are separate entries in the source; they are usually repeats but may differ in a detail not shown here. Identical values can stand only once. Inconclusive results and toxic doses are left out. Numbered stars: 1 amine (or outer) side, 2 acyl side, 3 side chain; on linkers, the order of the positions; unused ones are H or OH. Bridge positions count the residues as written; N and C are the ends. Square brackets hold non-standard residues; d marks the D form. Peptide text beside a SMILES is read from it. I, II: the chains in the order shown. Actinocin(1to9) = Cc1c2oc3c(C)ccc(C(=O)[*:2])c3nc-2c(C(=O)[*:1])c(N)c1=O; NMeV = CN[CH](C(=O)O)C(C)C; Sar = CNCC(=O)O

System: L1210 leukemia ip in BDF1 mice, survival T/C
Assay: NCI In Vivo Anticancer Drug Screen. Data for tumor model L1210 Leukemia (intraperitoneal) in B6D2F1 (BDF1) mice
Conditions: higher = longer survival
Summary of the method: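 Ratio derived from survival: compound-dosed mice over vehicle-dosed mice, all bearing a transplantable tumor.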

[1] = endpoint: mean survival time, dose: 100.0 mg/kg/injection, schedule: Q01DX001 (ip), vehicle: carboxymethylcellulose (CMC)
[2] = endpoint: mean survival time, dose: 200.0 mg/kg/injection, schedule: Q01DX001 (ip), vehicle: carboxymethylcellulose (CMC)
[3] = endpoint: mean survival time, dose: 100.0 mg/kg/injection, schedule: Q01DX009 (ip), vehicle: Klucel (hydroxypropylcellulose) (HPC)
[4] = endpoint: mean survival time, dose: 200.0 mg/kg/injection, schedule: Q01DX009 (ip), vehicle: Klucel (hydroxypropylcellulose) (HPC)
[5] = endpoint: mean survival time, dose: 400.0 mg/kg/injection, schedule: Q01DX009 (ip), vehicle: Klucel (hydroxypropylcellulose) (HPC)
[6] = endpoint: mean survival time, dose: 100.0 mg/kg/injection, schedule: Q01DX001 (ip), vehicle: Klucel (hydroxypropylcellulose) (HPC)
[7] = endpoint: mean survival time, dose: 200.0 mg/kg/injection, schedule: Q01DX001 (ip), vehicle: Klucel (hydroxypropylcellulose) (HPC)
[8] = endpoint: mean survival time, dose: 400.0 mg/kg/injection, schedule: Q01DX001 (ip), vehicle: Klucel (hydroxypropylcellulose) (HPC)
[9] = endpoint: mean survival time, dose: 100.0 mg/kg/injection, schedule: Q01DX009 (ip), vehicle: saline with Tween-80
[10] = endpoint: mean survival time, dose: 50.0 mg/kg/injection, schedule: Q01DX009 (ip), vehicle: saline
[11] = endpoint: mean survival time, dose: 100.0 mg/kg/injection, schedule: Q01DX009 (ip), vehicle: saline
[12] = endpoint: mean survival time, dose: 100.0 mg/kg/injection, schedule: Q04DX002 (ip), vehicle: Klucel (hydroxypropylcellulose) (HPC)
[13] = endpoint: mean survival time, dose: 200.0 mg/kg/injection, schedule: Q04DX002 (ip), vehicle: Klucel (hydroxypropylcellulose) (HPC)
[14] = endpoint: mean survival time, dose: 400.0 mg/kg/injection, schedule: Q04DX002 (ip), vehicle: Klucel (hydroxypropylcellulose) (HPC)
[15] = endpoint: mean survival time, dose: 100.0 mg/kg/injection, schedule: Q04DX003 (ip), vehicle: saline with Tween-80
[16] = endpoint: mean survival time, dose: 200.0 mg/kg/injection, schedule: Q01DX009 (ip), vehicle: saline with Tween-80
[17] = endpoint: mean survival time, dose: 200.0 mg/kg/injection, schedule: Q04DX003 (ip), vehicle: saline with Tween-80
[18] = endpoint: mean survival time, dose: 400.0 mg/kg/injection, schedule: Q01DX009 (ip), vehicle: saline with Tween-80
[19] = endpoint: mean survival time, dose: 400.0 mg/kg/injection, schedule: Q04DX003 (ip), vehicle: saline with Tween-80

## COC(=O)c1ccc(O)c(Cl)c1
[1]
  T/C: 96 % of control
endpoint: mean survival time, dose: 100.0 mg/kg/injection, schedule: Q01DX009 (ip), vehicle: carboxymethylcellulose (CMC)
  T/C: 96 % of control
endpoint: mean survival time, dose: 100.0 mg/kg/injection, schedule: Q04DX002 (ip), vehicle: carboxymethylcellulose (CMC)
  T/C: 103 % of control and 90 % of control
endpoint: mean survival time, dose: 100.0 mg/kg/injection, schedule: Q04DX003 (ip), vehicle: carboxymethylcellulose (CMC)
  T/C: 97 % of control and 105 % of control
[2]
  T/C: 97 % of control
endpoint: mean survival time, dose: 200.0 mg/kg/injection, schedule: Q01DX009 (ip), vehicle: carboxymethylcellulose (CMC)
  T/C: 92 % of control
endpoint: mean survival time, dose: 200.0 mg/kg/injection, schedule: Q04DX002 (ip), vehicle: carboxymethylcellulose (CMC)
  T/C: 105 % of control and 90 % of control
endpoint: mean survival time, dose: 200.0 mg/kg/injection, schedule: Q04DX003 (ip), vehicle: carboxymethylcellulose (CMC)
  T/C: 100 % of control and 91 % of control
endpoint: mean survival time, dose: 400.0 mg/kg/injection, schedule: Q01DX001 (ip), vehicle: carboxymethylcellulose (CMC)
  T/C: 91 % of control
endpoint: mean survival time, dose: 400.0 mg/kg/injection, schedule: Q01DX009 (ip), vehicle: carboxymethylcellulose (CMC)
  T/C: 96 % of control
endpoint: mean survival time, dose: 400.0 mg/kg/injection, schedule: Q04DX002 (ip), vehicle: carboxymethylcellulose (CMC)
  T/C: 97 % of control
endpoint: mean survival time, dose: 400.0 mg/kg/injection, schedule: Q04DX003 (ip), vehicle: carboxymethylcellulose (CMC)
  T/C: 102 % of control and 103 % of control

## CC12CC3CC(C)(C1)CC(SC(=N)N)(C3)C2
endpoint: mean survival time, dose: 10.0 mg/kg/injection, schedule: Q04DX002 (ip), vehicle: Klucel (hydroxypropylcellulose) (HPC)
  T/C: 97 % of control
endpoint: mean survival time, dose: 20.0 mg/kg/injection, schedule: Q04DX002 (ip), vehicle: Klucel (hydroxypropylcellulose) (HPC)
  T/C: 102 % of control
endpoint: mean survival time, dose: 40.0 mg/kg/injection, schedule: Q04DX002 (ip), vehicle: Klucel (hydroxypropylcellulose) (HPC)
  T/C: 105 % of control

## CC(C)c1ccccc1O
endpoint: mean survival time, dose: 100.0 mg/kg/injection, schedule: Q04DX003 (ip), vehicle: Klucel (hydroxypropylcellulose) (HPC)
  T/C: 94 % of control
endpoint: mean survival time, dose: 200.0 mg/kg/injection, schedule: Q04DX003 (ip), vehicle: Klucel (hydroxypropylcellulose) (HPC)
  T/C: 95 % of control
endpoint: mean survival time, dose: 400.0 mg/kg/injection, schedule: Q04DX003 (ip), vehicle: Klucel (hydroxypropylcellulose) (HPC)
  T/C: 90 % of control

## CCc1ccccc1NC(=O)Nc1ccccc1C(N)=O
[3]
  T/C: 87 % of control
[4]
  T/C: 93 % of control
[5]
  T/C: 93 % of control

## CS(=O)(=O)O/C=C(\C#N)C(=O)O
[1]
  T/C: 103 % of control
[2]
  T/C: 106 % of control

## [N-]=[N+]=C1C(=O)NC(=O)NC1C(=O)O (stereo not given)
endpoint: mean survival time, dose: 75.0 mg/kg/injection, schedule: Q01DX009 (ip), vehicle: Klucel (hydroxypropylcellulose) (HPC)
  T/C: 103 % of control
[6]
  T/C: 96 % of control
endpoint: mean survival time, dose: 150.0 mg/kg/injection, schedule: Q01DX009 (ip), vehicle: Klucel (hydroxypropylcellulose) (HPC)
  T/C: 119 % of control
[7]
  T/C: 100 % of control
endpoint: mean survival time, dose: 300.0 mg/kg/injection, schedule: Q01DX009 (ip), vehicle: Klucel (hydroxypropylcellulose) (HPC)
  T/C: 107 % of control
[8]
  T/C: 86 % of control

## CN(C)C(=O)NN
[9]
  T/C: 104 % of control

## NCCOP(=O)(O)O
[10]
  T/C: 95 % of control
[11]
  T/C: 98 % of control
endpoint: mean survival time, dose: 200.0 mg/kg/injection, schedule: Q01DX009 (ip), vehicle: saline
  T/C: 106 % of control

## COC(=O)c1ccc(C)cn1
endpoint: mean survival time, dose: 100.0 mg/kg/injection, schedule: Q01DX001 (ip), vehicle: saline
  T/C: 100 % of control

## C1CC2CC3OC3CC12 (stereo not given)
[12]
  T/C: 95 % of control
[13]
  T/C: 92 % of control
[14]
  T/C: 92 % of control

## CN(C)C(=S)Oc1ccc(C(=O)O)cc1
[6]
  T/C: 86 % of control
[7]
  T/C: 90 % of control
[8]
  T/C: 88 % of control

## CCCCCCC(C)O[Si](C)c1ccc(C)cc1 (stereo not given)
[9]
  T/C: 103 % of control
[15]
  T/C: 113 % of control
[16]
  T/C: 90 % of control
[17]
  T/C: 97 % of control
[18]
  T/C: 97 % of control
[19]
  T/C: 87 % of control

## CCC(C)C1NC(=O)C(NC(=O)c2c3nc4c(C(=O)NC5C(=O)NC(C(C)C)C(=O)N6CCCC6C(=O)N(C)CC(=O)N(C)C(C(C)C)C(=O)OC5C)ccc(C)c4oc-3c(C)c(=O)c2N)C(C)OC(=O)C(C(C)C)N(C)C(=O)CN(C)C(=O)C2CCCN2C1=O (stereo not given) (I: TIP[Sar][NMeV] / II: TVP[Sar][NMeV]; ester I:1-I:C, II:1-II:C; linker I:N-II:N via Actinocin(1to9); configuration not given here)
endpoint: mean survival time, dose: 0.2 mg/kg/injection, schedule: Q01DX009 (ip), vehicle: saline
  T/C: 92 % of control
endpoint: mean survival time, dose: 3.1 micrograms/kg/injection, schedule: Q01DX001 (ip), vehicle: saline
  T/C: 97 % of control
endpoint: mean survival time, dose: 5.5 micrograms/kg/injection, schedule: Q01DX009 (ip), vehicle: acetone
  T/C: 112 % of control
endpoint: mean survival time, dose: 6.3 micrograms/kg/injection, schedule: Q01DX001 (ip), vehicle: saline
  T/C: 98 % of control
endpoint: mean survival time, dose: 8.2 micrograms/kg/injection, schedule: Q01DX009 (ip), vehicle: acetone
  T/C: 123 % of control
endpoint: mean survival time, dose: 12.5 micrograms/kg/injection, schedule: Q01DX001 (ip), vehicle: saline
  T/C: 100 % of control
endpoint: mean survival time, dose: 25.0 micrograms/kg/injection, schedule: Q01DX001 (ip), vehicle: saline
  T/C: 107 % of control
endpoint: mean survival time, dose: 25.0 micrograms/kg/injection, schedule: Q01DX009 (ip), vehicle: saline
  T/C: 159 % of control
endpoint: mean survival time, dose: 50.0 micrograms/kg/injection, schedule: Q01DX001 (ip), vehicle: saline
  T/C: 114 % of control
endpoint: mean survival time, dose: 100.0 micrograms/kg/injection, schedule: Q01DX001 (ip), vehicle: saline
  T/C: 111 % of control
endpoint: mean survival time, dose: 200.0 micrograms/kg/injection, schedule: Q01DX001 (ip), vehicle: saline
  T/C: 117 % of control
endpoint: mean survival time, dose: 400.0 micrograms/kg/injection, schedule: Q01DX001 (ip), vehicle: saline
  T/C: 116 % of control
endpoint: median survival time, dose: 12.5 micrograms/kg/injection, schedule: Q01DX009 (ip), vehicle: water
  T/C: 121 % of control
endpoint: median survival time, dose: 25.0 micrograms/kg/injection, schedule: Q01DX009 (ip), vehicle: water
  T/C: 115 % of control
endpoint: median survival time, dose: 100.0 micrograms/kg/injection, schedule: Q01DX009 (ip), vehicle: water
  T/C: 157 % of control
endpoint: median survival time, dose: 200.0 micrograms/kg/injection, schedule: Q01DX001 (ip), vehicle: water
  T/C: 115 % of control
endpoint: median survival time, dose: 400.0 micrograms/kg/injection, schedule: Q01DX001 (ip), vehicle: water
  T/C: 123 % of control
endpoint: median survival time, dose: 600.0 micrograms/kg/injection, schedule: Q04DX003 (ip), vehicle: water
  T/C: 150 % of control

## CCCCCCCCCC(=O)N1C(C)CCC1C (stereo not given)
endpoint: mean survival time, dose: 100.0 mg/kg/injection, schedule: Q04DX002 (ip), vehicle: other
  T/C: 103 % of control
endpoint: mean survival time, dose: 200.0 mg/kg/injection, schedule: Q04DX002 (ip), vehicle: other
  T/C: 107 % of control

## O=C(CCN1CCCCC1)c1cccc([N+](=O)[O-])c1
endpoint: mean survival time, dose: 12.0 mg/kg/injection, schedule: Q04DX003 (ip), vehicle: saline
  T/C: 93 % of control
endpoint: mean survival time, dose: 25.0 mg/kg/injection, schedule: Q01DX009 (ip), vehicle: saline
  T/C: 111 % of control
endpoint: mean survival time, dose: 25.0 mg/kg/injection, schedule: Q04DX003 (ip), vehicle: saline
  T/C: 101 % of control
[10]
  T/C: 103 % of control
endpoint: mean survival time, dose: 50.0 mg/kg/injection, schedule: Q04DX003 (ip), vehicle: saline
  T/C: 95 % of control
[11]
  T/C: 103 % of control

## CCn1nnnc1N
endpoint: mean survival time, dose: 100.0 mg/kg/injection, schedule: Q04DX003 (ip), vehicle: saline
  T/C: 91 % of control
endpoint: mean survival time, dose: 200.0 mg/kg/injection, schedule: Q04DX003 (ip), vehicle: saline
  T/C: 94 % of control
endpoint: mean survival time, dose: 400.0 mg/kg/injection, schedule: Q04DX003 (ip), vehicle: saline
  T/C: 102 % of control

## CNC(=O)Oc1cc2c(cc1C)C(C)(C)CCC2(C)C
[3]
  T/C: 96 % of control
[4]
  T/C: 96 % of control
[5]
  T/C: 91 % of control

## CCOC(=O)COc1cc([N+](=O)[O-])c(Cl)cc1Cl
[12]
  T/C: 98 % of control
[13]
  T/C: 98 % of control
[14]
  T/C: 98 % of control

## CCCCSCCC
[9]
  T/C: 98 % of control
[15]
  T/C: 117 % of control
[16]
  T/C: 98 % of control
[17]
  T/C: 96 % of control
[18]
  T/C: 94 % of control
[19]
  T/C: 94 % of control

## CSc1nc(SC)c2[nH]cnc2n1
[3]
  T/C: 100 % of control
[4]
  T/C: 105 % of control
[5]
  T/C: 98 % of control
